Measured values as given in ChEMBL document CHEMBL1146107, “Investigation of mechanism-based thrombin inhibitors: Implications of a highly conserved water molecule for the binding of coumarins within the S pocket” (Bioorg Med Chem Lett, 2006).

Biological target: Prothrombin (Homo sapiens, UniProt P00734)
Experiment: Inhibition of thrombin

Row | SMILES | IC50
1 | O=C(OC1CCNCC1)c1cc2cc(CCl)ccc2oc1=O | > 300 µM
2 | Cc1cccc(OC(=O)c2cc3cc(CCl)ccc3oc2=O)n1 | 1.39 µM
3 | NC1CCC(OC(=O)c2cc3cc(CCl)ccc3oc2=O)CC1 (stereo not drawn) | > 300 µM
4 | Nc1ccc(OC(=O)c2cc3cc(CCl)ccc3oc2=O)cc1 | 48 µM
5 | O=C(Oc1cccc(Cl)n1)c1cc2cc(CCl)ccc2oc1=O | 0.87 µM
6 | N=C(N)Nc1cccc(OC(=O)c2cc3cc(CCl)ccc3oc2=O)c1 | > 300 µM
7 | N=C(N)Nc1ccc(OC(=O)c2cc3cc(CCl)ccc3oc2=O)cc1 | 151 µM
8 | NC(N)=NCCCOC(=O)c1cc2cc(CCl)ccc2oc1=O | > 300 µM
9 | NCCCOC(=O)c1cc2cc(CCl)ccc2oc1=O | > 300 µM
10 | O=C(Oc1cncc(Cl)c1)c1cc2cc(CCl)ccc2oc1=O | > 300 µM
11 | Nc1cccc(OC(=O)c2cc3cc(CCl)ccc3oc2=O)c1 | 1.98 µM
12 | NCCOC(=O)c1cc2cc(CCl)ccc2oc1=O | 284 µM
13 | N=C(N)NCCOC(=O)c1cc2cc(CCl)ccc2oc1=O | 107 µM
